Reference: US20170022171A1, “2,5-DISUBSTITUTED CYCLOPENTANECARBOXYLIC ACIDS AND THEIR USE” (Bayer Pharma Aktiengesellschaft, priority 2014, published 2017)

Experiments:
Format in all cases: biochemical
MMP-8 = target: T1, MMP-8 (Homo sapiens, UniProt P22894); experiment: In vitro MMP-8 inhibition test
T1 construct: purchased R&D Systems 908-MP
How it was run: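 APMA-activated recombinant MMP-8 (final e.g. 0.5 nM) preincubated with compound in DMSO (e.g. 1 nM–30 μM) in 50 mM Tris/HCl pH 7.5, 10 mM CaCl2, 150 mM NaCl, 0.05% Brij-35. Reaction started with quenched Mca-Pro-Leu-Gly-Leu-Dpa(Dnp)-Ala-Arg-NH2 substrate (e.g. 10 μM); fluorescence (ex 320/em 410 nm) followed e.g. 120 min at 32° C; IC50 at 50% signal.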

[1] = target: T2, human macrophage elastase (HME/hMMP-12) (Homo sapiens, UniProt P39900); experiment: In vitro HME inhibition test (standard or high-sensitivity); conditions: in some cases mean values
T2 construct: 0.5 nM HME; purchased R&D Systems 917-MP
T2 sequence (P39900 106-470): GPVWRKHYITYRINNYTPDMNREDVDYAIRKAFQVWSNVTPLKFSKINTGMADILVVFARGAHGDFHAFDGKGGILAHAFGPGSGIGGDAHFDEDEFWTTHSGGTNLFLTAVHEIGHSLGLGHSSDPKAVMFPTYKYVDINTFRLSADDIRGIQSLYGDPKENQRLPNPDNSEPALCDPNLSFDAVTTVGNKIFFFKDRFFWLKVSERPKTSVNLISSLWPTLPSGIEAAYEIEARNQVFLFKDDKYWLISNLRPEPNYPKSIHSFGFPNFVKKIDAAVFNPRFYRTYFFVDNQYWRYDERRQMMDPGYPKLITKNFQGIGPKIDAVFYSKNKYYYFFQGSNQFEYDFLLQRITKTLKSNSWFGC
How it was run: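 Fluorogenic assay: 0.5 nM autoactivated HME with 5 µM Mca-Pro-Leu-Gly-Leu-Glu-Glu-Ala-Dap(Dnp)-NH2 in HEPES pH 7.4 buffer (NaCl, CaCl2, ZnCl2, EDTA, Brij), 2 h at 37 °C; ex 323/em 393 nm. IC50 from fluorescence versus concentration. High-sensitivity format: ~0.05 nM enzyme, ~16 h incubation.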

MMP-14 = target: T3, MMP-14 (Homo sapiens, UniProt P50281); experiment: In vitro MMP-14 inhibition test
T3 construct: purchased R&D Systems 918-MP
How it was run: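 Furin-activated recombinant MMP-14 (e.g. 0.5 nM final) with compound in Tris pH 7.5, CaCl2, NaCl, Brij-35 buffer; Mca/Dnp quenched peptide substrate, e.g. 5 μM final. Fluorescence (ex 320/em 410 nm) followed e.g. 120 min at 32 °C; IC50 at half-maximal signal.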

MMP-7 = target: T4, MMP-7 (Homo sapiens, UniProt P09237); experiment: In vitro MMP-7 inhibition test
T4 construct: purchased R&D Systems 907-MP
T4 sequence (P09237 95-267): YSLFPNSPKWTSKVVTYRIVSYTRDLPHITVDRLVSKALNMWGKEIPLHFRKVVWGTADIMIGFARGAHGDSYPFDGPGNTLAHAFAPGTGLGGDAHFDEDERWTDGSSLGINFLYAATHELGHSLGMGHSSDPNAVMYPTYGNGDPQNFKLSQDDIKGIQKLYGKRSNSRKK
How it was run: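 APMA-activated recombinant MMP-7 (e.g. 0.5 nM final) in Tris/HCl pH 7.5 with CaCl2, NaCl and Brij-35; started with quenched fluorogenic Mca-PLGL-Dpa(Dnp)-AR-NH2 substrate (e.g. 10 μM final). Fluorescence (ex 320/em 410 nm) followed e.g. over 120 min at 32° C; IC50 is the concentration giving 50% signal.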

T1 sequence (P22894 101-467): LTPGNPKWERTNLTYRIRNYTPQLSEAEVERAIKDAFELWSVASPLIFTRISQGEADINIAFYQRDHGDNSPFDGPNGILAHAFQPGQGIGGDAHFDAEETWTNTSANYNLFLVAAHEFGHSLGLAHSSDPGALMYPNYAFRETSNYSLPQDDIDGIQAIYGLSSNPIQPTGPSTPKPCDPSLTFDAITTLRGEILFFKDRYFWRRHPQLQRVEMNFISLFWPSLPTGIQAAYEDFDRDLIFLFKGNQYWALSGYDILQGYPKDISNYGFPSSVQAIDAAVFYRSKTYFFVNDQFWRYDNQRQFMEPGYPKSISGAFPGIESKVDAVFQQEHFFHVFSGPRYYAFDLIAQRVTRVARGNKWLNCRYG

Structure (SMILES)	IC50 (MMP-8) [nM]	IC50 [1] [nM]	IC50 (MMP-14) [nM]	IC50 (MMP-7) [nM]
O=C(O)[C@H]1[C@H](Cn2nnc3ccc(C(F)(F)F)cc3c2=O)CC[C@@H]1C(=O)c1ccc(OCCCC2CCCCC2)cc1 (racemic) [Example 56, (+/−)-(1RS,2RS,5SR)-2-{4-(3-Cyclohexylpropoxy)benzoyl}-5-{[4-oxo-6-(trifluoromethyl)-1,2,3-benzotriazin-3(4H)-yl]methyl}cyclopentanecarboxylic acid]	580	0.2	> 40000	1400
O=C(O)[C@@H]1[C@@H](Cn2nnc3ccc(C(F)(F)F)cc3c2=O)CC[C@H]1C(=O)c1ccc(OCc2cccc(N3CCOC3=O)c2)cc1 (single isomer, unassigned) [Example 35, (+)-(1RS,2RS,5SR)-2-(4-{[3-(2-Oxo-1,3-oxazolidin-3-yl)benzyl]oxy}benzoyl)-5-{[4-oxo-6-(trifluoromethyl)-1,2,3-benzotriazin-3(4H)-yl]methyl}cyclopentanecarboxylic acid]	2	0.013	170	31

More lines, in order of falling IC50 (MMP-8), values ahead:

IC50 (MMP-8) [nM]	IC50 [1] [nM]	IC50 (MMP-14) [nM]	IC50 (MMP-7) [nM]	Structure (SMILES)
440	0.51	480	5300	O=C(O)[C@H]1[C@H](Cn2nnc3ccccc3c2=O)CC[C@@H]1C(=O)c1ccc(OCc2cccc(Cl)c2)cc1 (racemic) [Example 2, (+/−)-(1RS,2RS,5SR)-2-{4-[(3-Chlorobenzyl)oxy]benzoyl}-5-[(4-oxo-1,2,3-benzotriazin-3(4H)-yl)methyl]cyclopentanecarboxylic acid]
38	0.017	3600	340	O=C(O)[C@@H]1[C@@H](Cn2nnc3ccc(C(F)(F)F)cc3c2=O)CC[C@H]1C(=O)c1ccc(OCCC2CCCCC2)cc1 (single isomer, unassigned) [Example 52, (+)-(1RS,2RS,5SR)-2-[4-(2-Cyclohexylethoxy)benzoyl]-5-{[4-oxo-6-(trifluoromethyl)-1,2,3-benzotriazin-3(4H)-yl]methyl}cyclopentanecarboxylic acid]
16	0.027	1300	180	CCCCCCOc1ccc(C(=O)[C@@H]2CC[C@H](Cn3nnc4ccc(C(F)(F)F)cc4c3=O)[C@H]2C(=O)O)cc1 (single isomer, unassigned) [Example 58, (+)-(1RS,2RS,5SR)-2-[4-(Hexyloxy)benzoyl]-5-{[4-oxo-6-(trifluoromethyl)-1,2,3-benzotriazin-3(4H)-yl]methyl}cyclopentanecarboxylic acid]
1.1	0.024	88	140	O=C(O)[C@@H]1[C@@H](Cn2nnc3ccc(C(F)(F)F)cc3c2=O)CC[C@H]1C(=O)c1ccc(OCC2CCCC2)cc1 (single isomer, unassigned) [Example 44, (+)-(1RS,2RS,5SR)-2-[4-(Cyclopentylmethoxy)benzoyl]-5-{[4-oxo-6-(trifluoromethyl)-1,2,3-benzotriazin-3(4H)-yl]methyl}cyclopentanecarboxylic acid]
